ChEMBL document CHEMBL1145616, “Pyridyl-phenyl ether monoamine reuptake inhibitors: Impact of lipophilicity on dual SNRI pharmacology and off-target promiscuity” (Bioorg Med Chem Lett, 2008)

What was measured:
[1] = target: Sodium-dependent serotonin transporter (Homo sapiens, UniProt P31645); assay: Inhibition of [3H]5-HT uptake at human recombinant 5HT transporter expressed in HEK293 cells; assay type: cell-based
[2] = target: Sodium-dependent noradrenaline transporter (Homo sapiens, UniProt P23975); assay: Inhibition of [3H]NA uptake at human recombinant NA transporter expressed in HEK293 cells; assay type: cell-based
[3] = target: Sodium-dependent dopamine transporter (Homo sapiens, UniProt Q01959); assay: Inhibition of [3H]DA uptake at human recombinant DAT expressed in HEK293 cells; assay type: cell-based
[4] = Intrinsic clearance in human liver microsomes; assay type: ADME, Microsome
[5] = Intrinsic clearance per 10^6 cells in human hepatocytes; assay type: ADME, cell-based, Liver, Hepatocyte
Cytochrome P450 2D6 = Cytochrome P450 2D6 (Homo sapiens, UniProt P10635); assay: Inhibition of CYP2D6; assay type: ADME
Cytochrome P450 3A4 = Cytochrome P450 3A4 (Homo sapiens, UniProt P08684); assay: Inhibition of CYP3A4; assay type: ADME
Sequence of Cytochrome P450 3A4 (P08684 whole entry): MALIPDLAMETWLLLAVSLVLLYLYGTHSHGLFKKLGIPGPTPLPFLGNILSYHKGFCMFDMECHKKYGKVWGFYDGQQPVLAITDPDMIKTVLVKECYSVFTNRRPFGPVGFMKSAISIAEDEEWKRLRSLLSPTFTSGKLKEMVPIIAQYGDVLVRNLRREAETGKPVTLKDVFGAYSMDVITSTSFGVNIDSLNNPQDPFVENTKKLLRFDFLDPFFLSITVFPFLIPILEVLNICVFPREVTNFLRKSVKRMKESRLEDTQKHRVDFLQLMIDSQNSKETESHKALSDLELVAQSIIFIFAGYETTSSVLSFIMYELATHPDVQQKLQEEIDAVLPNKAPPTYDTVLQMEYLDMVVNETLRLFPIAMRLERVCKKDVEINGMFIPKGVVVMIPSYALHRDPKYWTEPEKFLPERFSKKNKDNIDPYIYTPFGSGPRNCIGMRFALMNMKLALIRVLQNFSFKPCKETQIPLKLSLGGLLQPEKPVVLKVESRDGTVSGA

Sequence of Sodium-dependent serotonin transporter (P31645 whole entry): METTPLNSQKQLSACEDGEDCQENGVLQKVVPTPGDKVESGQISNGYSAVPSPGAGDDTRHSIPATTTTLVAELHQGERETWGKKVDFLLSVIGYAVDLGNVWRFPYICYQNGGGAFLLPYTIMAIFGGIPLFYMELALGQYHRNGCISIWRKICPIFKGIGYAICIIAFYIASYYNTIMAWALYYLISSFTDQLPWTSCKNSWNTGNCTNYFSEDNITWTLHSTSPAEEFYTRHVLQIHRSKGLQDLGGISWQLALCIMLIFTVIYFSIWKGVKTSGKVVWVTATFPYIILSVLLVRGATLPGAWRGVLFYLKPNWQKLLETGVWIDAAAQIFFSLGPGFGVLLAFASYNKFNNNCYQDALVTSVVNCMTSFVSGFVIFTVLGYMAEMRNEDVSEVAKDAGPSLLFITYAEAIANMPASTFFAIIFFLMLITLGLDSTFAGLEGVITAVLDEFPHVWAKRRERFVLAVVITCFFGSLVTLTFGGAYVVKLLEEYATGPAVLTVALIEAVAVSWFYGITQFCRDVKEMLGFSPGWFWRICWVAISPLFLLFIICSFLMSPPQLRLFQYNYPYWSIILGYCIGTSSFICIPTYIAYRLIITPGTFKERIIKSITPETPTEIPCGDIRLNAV
Sequence of Sodium-dependent noradrenaline transporter (P23975 whole entry): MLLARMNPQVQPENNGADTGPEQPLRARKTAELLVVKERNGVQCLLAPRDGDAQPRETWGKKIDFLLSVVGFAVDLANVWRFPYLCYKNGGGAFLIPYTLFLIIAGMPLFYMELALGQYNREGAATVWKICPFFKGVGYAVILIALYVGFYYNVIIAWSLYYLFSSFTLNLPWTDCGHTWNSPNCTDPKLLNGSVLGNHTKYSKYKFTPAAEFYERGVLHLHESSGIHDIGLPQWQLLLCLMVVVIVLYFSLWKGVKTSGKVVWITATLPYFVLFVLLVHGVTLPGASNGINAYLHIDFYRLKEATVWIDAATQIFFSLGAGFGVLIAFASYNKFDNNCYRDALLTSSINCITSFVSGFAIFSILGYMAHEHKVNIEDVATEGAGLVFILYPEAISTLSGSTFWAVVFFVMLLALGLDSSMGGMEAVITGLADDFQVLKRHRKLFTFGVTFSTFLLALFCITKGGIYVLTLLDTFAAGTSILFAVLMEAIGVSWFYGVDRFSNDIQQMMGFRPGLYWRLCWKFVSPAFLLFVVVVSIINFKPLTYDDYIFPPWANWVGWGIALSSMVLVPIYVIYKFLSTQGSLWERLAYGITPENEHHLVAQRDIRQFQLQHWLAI
Sequence of Sodium-dependent dopamine transporter (Q01959 whole entry): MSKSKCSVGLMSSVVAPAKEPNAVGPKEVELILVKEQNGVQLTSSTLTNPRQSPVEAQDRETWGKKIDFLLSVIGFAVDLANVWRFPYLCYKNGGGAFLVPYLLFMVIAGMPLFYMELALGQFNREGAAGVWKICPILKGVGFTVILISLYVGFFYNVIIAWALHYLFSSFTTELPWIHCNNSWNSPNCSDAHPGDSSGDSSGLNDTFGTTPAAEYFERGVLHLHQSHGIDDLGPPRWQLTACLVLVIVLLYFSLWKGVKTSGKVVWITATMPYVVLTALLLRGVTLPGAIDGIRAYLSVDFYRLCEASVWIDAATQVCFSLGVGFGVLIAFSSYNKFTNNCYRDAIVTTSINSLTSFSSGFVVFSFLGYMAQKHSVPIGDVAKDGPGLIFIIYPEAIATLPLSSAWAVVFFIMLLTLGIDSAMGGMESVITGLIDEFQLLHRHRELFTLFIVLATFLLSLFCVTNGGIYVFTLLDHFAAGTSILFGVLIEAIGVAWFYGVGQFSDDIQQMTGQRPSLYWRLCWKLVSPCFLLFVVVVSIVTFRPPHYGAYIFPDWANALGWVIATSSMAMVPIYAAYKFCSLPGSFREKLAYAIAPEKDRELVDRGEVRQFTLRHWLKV
Sequence of Cytochrome P450 2D6 (P10635 whole entry): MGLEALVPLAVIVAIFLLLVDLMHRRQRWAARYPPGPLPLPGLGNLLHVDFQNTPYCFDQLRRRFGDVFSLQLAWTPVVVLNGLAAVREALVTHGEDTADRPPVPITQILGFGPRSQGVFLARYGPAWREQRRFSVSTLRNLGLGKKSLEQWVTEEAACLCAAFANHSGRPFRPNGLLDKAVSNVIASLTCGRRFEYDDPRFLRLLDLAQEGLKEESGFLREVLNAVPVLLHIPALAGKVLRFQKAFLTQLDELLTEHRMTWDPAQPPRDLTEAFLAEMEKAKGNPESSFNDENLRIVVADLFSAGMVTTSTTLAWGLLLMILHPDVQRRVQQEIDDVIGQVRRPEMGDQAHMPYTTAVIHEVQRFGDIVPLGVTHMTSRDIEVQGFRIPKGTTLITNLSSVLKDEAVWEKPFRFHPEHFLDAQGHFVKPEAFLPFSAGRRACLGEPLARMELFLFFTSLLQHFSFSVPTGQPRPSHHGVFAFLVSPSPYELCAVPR

Row | Compound | IC50 [1] | IC50 [2] | IC50 [3] | microsomal CLint [4] | hepatocyte CLint [5] | IC50 (Cytochrome P450 2D6) | IC50 (Cytochrome P450 3A4)
1 | COc1cc(Cl)ccc1Oc1ccncc1CN(C)C | 6 nM | 47 nM | 10200 nM | – | – | – | –
2 | CNCc1cnccc1Oc1ccc(Cl)cc1C | 14 nM | 246 nM | – | – | – | – | –
3 | CNCc1cnccc1Oc1ccc(Cl)cc1Br | 23 nM | 85 nM | – | – | – | – | –
4 | CCc1cc(Cl)ccc1Oc1ccncc1CN(C)C | 11 nM | 18 nM | > 38000 nM | – | – | – | –
5 | COc1cc(Cl)ccc1Oc1cc(C)ncc1CN(C)C | 13 nM | 26 nM | 5040 nM | < 7 µL/min/mg | < 5 µL/min/1e6 cells | > 10000 nM | > 10000 nM
6 | CCc1cc(Cl)ccc1Oc1ccncc1CNC | 46 nM | 86 nM | – | – | – | – | –
7 | CNCc1cnccc1Oc1ccc(Cl)cc1OC | 14 nM | 282 nM | – | – | – | – | –
8 | CCOc1cc(Cl)ccc1Oc1ccncc1CNC | 24 nM | 394 nM | – | – | – | – | –
9 | CNCc1cnc(C)cc1Oc1ccc(F)cc1C | 231 nM | > 400 nM | – | – | – | – | –
10 | CNCc1cnc(C)cc1Oc1ccc(C)cc1OC | 18 nM | 257 nM | – | – | – | – | –
11 | CN(C)Cc1cnccc1Oc1ccc(Cl)cc1Br | 4 nM | 26 nM | 1970 nM | – | – | – | –
12 | CNCc1cnc(C)cc1Oc1ccc(Cl)cc1OC | 4 nM | 83 nM | – | – | – | – | –
13 | Cc1cc(Oc2ccc(Cl)cc2C)c(CN(C)C)cn1 | 6 nM | 26 nM | 1680 nM | < 7 µL/min/mg | < 5 µL/min/1e6 cells | > 10000 nM | > 10000 nM
14 | CNCc1cnccc1Oc1ccc(Cl)cc1Cl | 39 nM | 159 nM | – | – | – | – | –
15 | Cc1cc(Cl)ccc1Oc1ccncc1CN(C)C | 3 nM | 36 nM | 3230 nM | – | – | – | –
16 | CNCc1cnc(C)cc1Oc1ccc(Cl)cc1Br | 10 nM | 38 nM | – | – | – | – | –
17 | CN(C)Cc1cnccc1Oc1ccc(Cl)cc1Cl | 8 nM | 25 nM | 2430 nM | – | – | – | –
18 | CNCc1cnc(C)cc1Oc1ccc(Cl)cc1C | 6 nM | 51 nM | – | – | – | – | –
19 | CCc1cc(Cl)ccc1Oc1cc(C)ncc1CN(C)C | 19 nM | 30 nM | > 34000 nM | – | – | – | –
20 | CNCc1cc(C(=O)N(C)C)ccc1Oc1ccc(Cl)cc1OC | 7 nM | – | > 4000 nM | – | 21 µL/min/1e6 cells | – | –
21 | CCc1cc(Cl)ccc1Oc1cc(C)ncc1CNC | 20 nM | 22 nM | 34100 nM | – | – | – | –
